Results on 20 compounds are retold here after ChEMBL document CHEMBL5506023, “Design, Synthesis, and Evaluation of Dihydropyrimidine Derivatives as Selective PDE1 Inhibitors for the Treatment of Liver Fibrosis” (J Med Chem, 2024).

The test system of data set [1] is Rattus norvegicus. Description: Antifibrotic activity against bile duct ligation induced Sprague-Dawley rat liver fibrosis model assessed as increase in cAMP level in liver at 2.5 mg/kg,ip administrated once daily for 21 days by ELISA. It counts as functional, organism-based. To be noted: time 21.0 day. For orientation: cAMP levels reflect the balance of adenylyl cyclase and phosphodiesterase activity.

Data set [2] concerns Rattus norvegicus. Description: Antifibrotic activity against bile duct ligation induced Sprague-Dawley rat liver fibrosis model assessed as downregulation of alpha-SMA expression in liver at 2.5 mg/kg,ip administrated once daily for 21 days by Western blotting analysis. It counts as functional, organism-based. The settings on record: time 21.0 day. Background: In western blotting, separated proteins are transferred to a membrane and probed.

Data set [3] has as its system Rattus norvegicus. The data set is described as follows: Antifibrotic activity against bile duct ligation induced Sprague-Dawley rat liver fibrosis model assessed as reduction in liver damage at 2.5 mg/kg,ip administrated once daily for 21 days by hematoxylin and eosin staining based analysis. The format is functional, organism-based. The settings on record: time 21.0 day.

For data set [4], the system named is Rattus norvegicus. Description: Antifibrotic activity against bile duct ligation induced Sprague-Dawley rat liver fibrosis model assessed as reduction in collagen deposition at 2.5 mg/kg,ip administrated once daily for 21 days by Masson's trichome staining based analysis. It counts as functional, organism-based. To be noted: time 21.0 day.
Data set [5] has as its system Rattus norvegicus. The data set is described as follows: Antifibrotic activity against bile duct ligation induced Sprague-Dawley rat liver fibrosis model assessed as downregulation of collagen I expression in liver at 2.5 mg/kg,ip administrated once daily for 21 days by Western blotting analysis. The format is functional, organism-based. To be noted: time 21.0 day.

The test system of data set [6] is Rattus norvegicus. The data set is described as follows: Antifibrotic activity against bile duct ligation induced Sprague-Dawley rat liver fibrosis model assessed as increase in cGMP level in liver at 2.5 mg/kg,ip administrated once daily for 21 days by ELISA. It counts as functional, organism-based. To be noted: time 21.0 day. (ELISA stands for enzyme-linked immunosorbent assay.)

For data set [7], the system named is Rattus norvegicus. Description: Antifibrotic activity against bile duct ligation induced Sprague-Dawley rat liver fibrosis model assessed as reduction in total bile acid level at 2.5 mg/kg,ip administrated once daily for 21 days. It counts as functional, organism-based. To be noted: time 21.0 day.
The target in data set [8] is T1, Dual specificity calcium/calmodulin-dependent 3',5'-cyclic nucleotide phosphodiesterase 1C (Homo sapiens, UniProt Q14123). The data set is described as follows: Inhibition of PDE1C2 (147 to 531 residues) (unknown origin) using 3H-cGMP as substrate incubated for 15 mins by liquid scintillation counter analysis.
T1 sequence (Q14123 whole entry, the tested form may be a part): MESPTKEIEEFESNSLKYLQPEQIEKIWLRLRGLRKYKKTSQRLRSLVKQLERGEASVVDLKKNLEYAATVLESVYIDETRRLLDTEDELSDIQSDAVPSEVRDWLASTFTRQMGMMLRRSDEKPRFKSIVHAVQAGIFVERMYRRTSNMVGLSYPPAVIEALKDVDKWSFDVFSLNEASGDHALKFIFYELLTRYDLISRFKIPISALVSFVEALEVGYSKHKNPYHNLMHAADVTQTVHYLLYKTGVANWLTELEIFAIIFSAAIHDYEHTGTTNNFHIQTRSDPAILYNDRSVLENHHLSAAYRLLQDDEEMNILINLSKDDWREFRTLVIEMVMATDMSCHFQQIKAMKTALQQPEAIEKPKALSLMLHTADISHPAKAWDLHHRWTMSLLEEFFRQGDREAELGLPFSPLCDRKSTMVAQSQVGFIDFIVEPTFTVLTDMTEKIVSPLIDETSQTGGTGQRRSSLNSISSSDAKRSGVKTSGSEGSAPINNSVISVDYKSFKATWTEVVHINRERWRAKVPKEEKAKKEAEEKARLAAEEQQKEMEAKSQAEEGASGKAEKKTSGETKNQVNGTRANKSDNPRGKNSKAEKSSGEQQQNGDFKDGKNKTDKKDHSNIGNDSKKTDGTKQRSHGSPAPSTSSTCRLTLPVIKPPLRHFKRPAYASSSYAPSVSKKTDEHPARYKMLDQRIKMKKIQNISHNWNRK
For data set [9], the system named is Rattus norvegicus. Description: Antifibrotic activity against bile duct ligation induced Sprague-Dawley rat liver fibrosis model assessed as reduction in AST level at 2.5 mg/kg,ip administrated once daily for 21 days. To be noted: time 21.0 day. It counts as functional, organism-based.
Data set [10] has as its system Rattus norvegicus. The data set is described as follows: Antifibrotic activity against bile duct ligation induced Sprague-Dawley rat liver fibrosis model assessed as reduction in alpha-smooth muscle actin level in liver at 2.5 mg/kg,ip administrated once daily for 21 days by immunofluorescence staining based analysis. The format is functional, organism-based. The settings on record: time 21.0 day.

Data set [11] relates to Rattus norvegicus. Description: Antifibrotic activity against bile duct ligation induced Sprague-Dawley rat liver fibrosis model assessed as reduction in fibrotic lesion at 2.5 mg/kg,ip administrated once daily for 21 days by hematoxylin and eosin staining based analysis. It counts as functional, organism-based. The settings on record: time 21.0 day.
A short description of data set [12]: Half life in rat liver microsomes at 1.5 uM. The format is ADME, Microsome.
For data set [13], the system named is Rattus norvegicus. The data set is described as follows: Antifibrotic activity against bile duct ligation induced Sprague-Dawley rat liver fibrosis model assessed as reduction in ALT level at 2.5 mg/kg,ip administrated once daily for 21 days. The format is functional, organism-based. The settings on record: time 21.0 day.
Data set [14] deals with T1, Dual specificity calcium/calmodulin-dependent 3',5'-cyclic nucleotide phosphodiesterase 1C. The data set is described as follows: Inhibition of PDE1C2 (147 to 531 residues) (unknown origin) using 3H-cGMP as substrate at 8000 nM incubated for 15 mins by liquid scintillation counter analysis relative to control.

Active and inactive are the calls of the source. No cut-off for these calls is given here.

The IC50 is the concentration needed to halve the response being measured. One may read the half-life as how long it takes for the measured level to halve. Lower therefore signals rapid decline. As to `CC1=C(C(=O)OCC2CCCCC2)C(c2ccc(OC(F)F)cc2)N(C(=O)SCc2ccccc2)C(=O)N1` (stereo unspecified), the result in the data set on Rattus norvegicus [1], in the data set with Rattus norvegicus [2], with Rattus norvegicus [3], in the data set with Rattus norvegicus [4], in the data set with Rattus norvegicus [5] and in the data set with Rattus norvegicus [7] was Active. For the same compound, the outcome with Rattus norvegicus [9], in the data set on Rattus norvegicus [10], in the data set with Rattus norvegicus [11] and with Rattus norvegicus [13] was Active. Also, the result with Rattus norvegicus [6] was inactive. In addition, in data set [8], the IC50 was 21 nM. The compound further returned a half-life at 1.5 µM in data set [12] of 7.1 min.

For the compound `CC1=C(C(=O)OCC2CCCCC2)C(c2ccc(OC(F)F)c(OCC3CC3)c2)N(C(=O)/C=C/c2ccccc2)C(=O)N1` (stereo unspecified), the IC50 in [8] came out at 6060 nM.

For `COc1ccc(C2C(C(=O)OCC3CCCC3)=C(C)NC(=O)N2C(=O)OCC2CCCC2)cc1OC` (stereo unspecified), in [8], the IC50 was found to be 42 nM.

As for `COc1ccc(C2C(C(=O)OCc3ccccc3)=C(C)NC(=O)N2C(=O)OCc2ccccc2)cc1OC` (stereo unspecified), the IC50 in data set [8] is 63 nM.

In the case of `CC1=C(C(=O)OCC2CCCCC2)C(c2cccc(Oc3ccccc3)c2)NC(=O)N1` (stereo unspecified), the IC50 in data set [8] was 2940 nM.

Take `COC(=O)C1=C(C)NC(=O)N(C(=O)SCc2ccccc2)C1c1ccc(OC(F)F)c(OCC2CC2)c1` (stereo unspecified): in data set [8], the IC50 is 103 nM.

On to `COC(=O)C1=C(C)NC(=O)N(C(=O)OCC2CCCCC2)C1c1ccc(OC(F)F)c(OCC2CC2)c1` (stereo unspecified), for which the IC50 in data set [8] worked out at 37 nM.

`CC(=O)N1C(=O)NC(C)=C(C(=O)OCC2CCCCC2)C1c1ccc(OC(F)F)c(OCC2CC2)c1` (stereo unspecified): the IC50 in data set [8] stood at 2320 nM.

As to `CC1=C(C(=O)OCC2CCCCC2)C(c2ccc(OC(F)F)c(OCC3CC3)c2)N(C(=S)Oc2ccccc2)C(=O)N1` (stereo unspecified), the IC50 in data set [8] is 5.8 nM. The half-life at 1.5 µM in [12] worked out at 6.1 min.

Consider `CCNC(=O)N1C(=O)NC(C)=C(C(=O)OCC2CCCCC2)C1c1ccc(OC(F)F)c(OCC2CC2)c1` (stereo unspecified), for which, in [8], the IC50 is 4690 nM.

On to `COc1ccc(C2NC(=O)NC(C)=C2C(=O)OCC2CCCCC2)cc1OC` (stereo unspecified), for which, in data set [8], the IC50 stood at 3590 nM.

A word on the inhibition: it is the change of the read-out against control, counted positive when it falls. Take `CC1=C(C(=O)OCC2CCCCC2)C(c2ccc(OC(F)F)c(OCC3CC3)c2)N(/C=C/Cc2ccccc2)C(=O)N1` (stereo unspecified): the inhibition in data set [14] came out at 47%.

As for `CC1=C(C(=O)OCC2CCCCC2)C(c2ccc(OC(F)F)c(OC(F)F)c2)N(C(=O)OCC2CCCCC2)C(=O)N1` (stereo unspecified), the IC50 in [8] was 7.5 nM. Moreover, in [12], the half-life at 1.5 µM came to 3.03 min.

In the case of `CC1=C(C(=O)OCC2CCCCC2)C(c2ccc(OC(F)F)c(OCC3CC3)c2)N(C(=O)OCC2CCCCC2)C(=O)N1` (stereo unspecified), the IC50 in data set [8] is 2.3 nM. This compound also had a half-life at 1.5 µM in data set [12] of 3.68 min.

For the compound `CC1=C(C(=O)OCC2CCCCC2)C(c2ccc(OC(F)F)c(OCC3CC3)c2)N(C)C(=O)N1` (stereo unspecified), in data set [14], the inhibition amounted to 45%.

`COc1ccc(C2C(C(=O)OCC3CCCCC3)=C(C)NC(=O)N2C(=O)OCC2CCCCC2)cc1OC` (stereo unspecified): in [8], the 50% inhibitory concentration (IC50) was determined as 5.9 nM. In data set [12], this compound yielded a half-life at 1.5 µM of 2.1 min.

In the case of `CC1=C(C(=O)OCC2CCCCC2)C(c2ccc(OC(F)F)c(OCC3CC3)c2)N(Cc2cccc(F)c2)C(=O)N1` (stereo unspecified), in data set [14], the inhibition is 40%.

On to `COc1ccc(C2C(C(=O)OCC3CCCCC3)=C(C)NC(=O)N2C(=O)OCC2CCCCC2)cn1` (stereo unspecified), for which the IC50 in data set [8] turned out to be 51 nM.

Take `CC1=C(C(=O)OCC2CCCCC2)C(c2cccc(OCC3CC3)c2)N(C(=O)SCc2ccccc2)C(=O)N1` (stereo unspecified): the IC50 in data set [8] came out at 42 nM.

For the compound `CC1=C(C(=O)OCC2CCCCC2)C(c2ccc(Cl)nc2)N(C(=O)OCC2CCCCC2)C(=O)N1` (stereo unspecified), the IC50 in data set [8] worked out at 195 nM.
